Experimental data: patent publication US10036018B2, “Compositions and methods for treating cachexia” (priority 2014, dated 2018)

Assays:
C2C12 myoblasts = test: Trypan blue cell death of C2C12 cells treated with cytokines; format: cell-based, murine; details: C2C12, 24 h, cytokines at 5 ng/mL
Procedure: FIG. 5C is a graph depicting cell death assessed by trypan blue dye staining performed on C2C12 cells that were treated for 24 h with individual cytokines or a mixture (Cocktail) of IL-1, IL-6, TNFα, and IFNγ (all at 5 ng/mL). As a negative control, cells were treated with serum-free medium.
Trypan Blue Staining. Trypan blue dye was purchased from Gibco (15250-061), and staining was performed following the manufacturer's protocol. Dead cells are blue in color under the microscope and were counted using a hemocytometer.

phospho-p38 = test: Western blot of treated C2C12 extracts, phospho-p38; format: cell-based, murine; details: proliferating myoblasts, Western blot time course
Procedure: (§1) FIG. 9B is an image of a Western blot on extracts of C2C12 cells that had been treated with either LLC-derived MVs (Upper) or synthetic miR-21 (Lower, using miR-16 as control), which were probed with antibodies against phospho-JNK, phospho-c-jun, and phospho-p38 at different times, as indicated.
(§2) Western Blot. Western blots were performed as previously described (2). Antibodies used and their dilutions are listed: p-JNK (Cell Signaling Technology, 1:2,000), p-c-Jun (Cell Signaling Technology, 1:1,000), p-p38 (Cell Signaling Technology, 1:2,000), and vinculin (Abeam, 1:3,000).

[1] = tested on: TLR7+/+ primary myoblasts; test: Cell viability (cell counter) of TLR7+/+ primary myoblasts treated with Dotap formulations of miRNAs; format: cell-based, mice; details: Dotap formulation, 24 h
Procedure: (§3) FIG. 4A is a graph depicting cell viability assessed with a cell counter for TLR7+/+ and TLR7−/− primary myoblasts that were treated with Dotap formulations of miR-16 and miR-21 for 24 h. As negative control, cells were incubated with Dotap alone. Experiments were performed in quadruplicate. Results are presented as average±SEM. *P≤0.05; **P≤0.01; ***P≤0.001.
(§4) MV Treatment. C2C12 immortalized myoblasts or primary myoblasts isolated from mice were treated with MVs at indicated times. Cell numbers of myoblasts were counted on a hemocytometer.
(§5) Myoblast Isolation and Culture. Primary myoblasts were isolated as previously described (2) and preplated twice, using noncoated tissue culture dishes, and then cultured either on a matrigelcoated 96-well plate for MTS assay reading at indicated times or on a matrigel-coated 12-well plate for protein and RNA analysis.

phospho-JNK = test: Western blot of treated C2C12 extracts, phospho-JNK; format: cell-based, murine; details: proliferating myoblasts, Western blot time course
Procedure: as §1, §2

[2] = tested on: TLR7−/− primary myoblasts; test: Cell viability (cell counter) of TLR7-/- primary myoblasts treated with Dotap formulations of miRNAs; format: cell-based, mice; details: Dotap formulation, 24 h
Procedure: as §3, §4, §5
Mice. Cachexia in the LLC model were induced as previously described (2). TLR7−/− mice were obtained from Jackson Laboratory. Wild-type C57B6 male mice at the same age and weight were used as TLR7+/+ controls. All genotypes were determined by PCR, using tail DNA. All procedures used in this study complied with federal guidelines and the institutional policies of the Ohio State University Animal Care and Use Committee.

phospho-c-jun = test: Western blot of treated C2C12 extracts, phospho-c-jun; format: cell-based, murine; details: proliferating myoblasts, Western blot time course
Procedure: as §1, §2

Q: With IFN-γ: proinflammatory cytokine as the substance, how does the “effect on the viability of proliferating murine C2C12 myoblasts” value (shortened to “effect on the viability”) (C2C12 myoblasts) read?
A: little or no effect

Q: With IL-1β: proinflammatory cytokine as the substance, how does the “effect on the viability” value (C2C12 myoblasts) read?
A: little or no effect

Q: IL-6: proinflammatory cytokine was tested. Which “effect on the viability” value (C2C12 myoblasts) did it give?
A: little or no effect

Q: TNFα was tested. Which “effect on the viability” value (C2C12 myoblasts) did it give?
A: little or no effect

Q: For UAGCUUAUCAGACUGAUGUUGA [miR-21], which p38 activity (phospho-p38) is on record?
A: no significant change

Q: What about the “cell death on exogenous addition of miRNA” value (“cell death” below) [1] of the same substance?
A: induced pronounced cell death

Q: What about the JNK activation (phospho-JNK) of the same substance?
A: transiently induced

Q: What about the “cell death” value [2] of the same substance?
A: significantly blunted

Q: And the “cell death” value ([2]; listed as miR21)?
A: does not completely rescue

Q: And the c-JUN activation (phospho-c-jun)?
A: transiently induced
